Laboratory results as given in US8101773B2, “Hydroxy methyl phenyl pyrazolyl urea compounds useful in the treatment of cancer” (Bayer Healthcare LLC, priority 2006, dated 2012).
Residue numbers refer to the chain shown, from its start.

Columns and labels:
[1] = biological target: T1, Flk-1 (murine VEGFR-2) kinase domain (Mus musculus, UniProt P35918); assay: Flk-1 (murine VEGFR-2) biochemical assay, TR-FRET; conditions: 10 μM ATP
T1 construct: 7 nM Flk-1 (kinase domain)
Description: Flk-1 (Murine VEGFR-2) Biochemical Assay
This assay was performed in 96-well opaque plates (Costar 3915) in the TR-FRET format. Reaction conditions were as follows: 10 μM ATP, 25 nM poly GT-biotin, 2 nM Eu-labelled phospho-Tyr Ab (PY20 Perkin Elmer), 10 nM APC (Perkin Elmer), 7 nM Flk-1 (kinase domain), 1% DMSO, 50 mM HEPES pH 7.5, 10 mM MgCl2, 0.1 mM EDTA, 0.015% BRIJ, 0.1 mg/mL BSA, 0.1% mercapto-ethanol). Reaction was initiated upon addition of enzyme. Final reaction volume in each well was 100 μL. Plates were read at both 615 and […] on a Perkin Elmer Victor V Multilabel counter at about 1.5-2.0 hours after reaction initiation. Signal was calculated as a ratio: (665 nm/615 nm)*10000 for each well.

[2] = biological target: T2, mutant Bcr-Abl-T3151 kinase (Homo sapiens, UniProt P00519, T315I); assay: Bcr-Abl mutant T315I biochemical assay (MBP phosphorylation, 33P-ATP); conditions: 50 μM ATP
T2 sequence (P00519 242-493 T315I limits assumed): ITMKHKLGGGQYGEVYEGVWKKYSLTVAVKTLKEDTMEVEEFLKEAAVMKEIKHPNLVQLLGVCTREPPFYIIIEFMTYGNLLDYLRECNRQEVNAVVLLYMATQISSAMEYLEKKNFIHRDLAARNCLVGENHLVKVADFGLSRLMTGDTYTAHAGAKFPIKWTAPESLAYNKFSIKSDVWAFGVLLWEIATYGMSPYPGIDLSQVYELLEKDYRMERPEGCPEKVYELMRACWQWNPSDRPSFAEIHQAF
Description: (§1) Bcr-Abl Wild Type and Mutant T315I Biochemical Assay
(§2) Bcr-Abl-wt or mutant Bcr-Abl-T3151 kinase (0.17 nM) was incubated with Myelin Basic Protein (MBP, 2 μM) in assay buffer consisting of 50 mM Tris pH 7.5, 10 mM MgCl2, 1 mM EGTA, 2 mM DTT, 50 μM ATP and 0.4 μCi of ^33P-ATP. Test compounds were added at varying concentrations (final DMSO conc=1%) prior to the addition of ATP. The reaction mixture was incubated for 1 hour at 32° C. The reaction was then stopped by addition of phosphoric acid (final conc=1%) and samples were transferred to filtermats and read in a betaplate reader. Inhibition of MBP phosphorylation by Bcr-Abl-wt or Bcr-Abl-T3151 was analyzed by using a 4 parameter fit and in-house software.

[3] = biological target: T3, human recombinant c-Met intracellular kinase domain (Homo sapiens, UniProt P08581); assay: c-Met biochemical assay, ELISA format; conditions: 0.2 μM ATP
T3 construct: C-terminal HIS-tagged intracellular kinase domain (956 to 1390 amino acids) human recombinant c-Met; His tag (C)
T3 sequence (P08581 956-1390): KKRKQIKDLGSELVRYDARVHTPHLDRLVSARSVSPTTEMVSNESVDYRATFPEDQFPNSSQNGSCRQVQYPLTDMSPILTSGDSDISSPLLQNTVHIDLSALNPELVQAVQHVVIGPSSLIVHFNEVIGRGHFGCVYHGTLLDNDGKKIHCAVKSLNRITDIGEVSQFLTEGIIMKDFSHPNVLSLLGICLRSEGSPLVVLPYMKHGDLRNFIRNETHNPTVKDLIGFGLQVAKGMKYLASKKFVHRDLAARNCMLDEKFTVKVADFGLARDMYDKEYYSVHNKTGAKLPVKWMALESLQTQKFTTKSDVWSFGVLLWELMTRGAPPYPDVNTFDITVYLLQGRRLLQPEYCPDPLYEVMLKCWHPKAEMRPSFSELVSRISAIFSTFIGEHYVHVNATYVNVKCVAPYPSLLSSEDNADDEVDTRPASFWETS
Description: An ELISA format was used for the c-Met biochemical assay. This assay uses the C-terminal HIS-tagged intracellular kinase domain (956 to 1390 amino acids) human recombinant c-Met in 96-well plates. 96-Well plates (Costar #9018) coated with poly(GluTyr) (Sigma # P0275) were used in this assay. The poly(GluTyr) substrate coated on the plate was phosphorylated in a 100 μL reaction volume with 2 nM c-Met protein in an assay buffer (50 mM HEPES pH7.0, 5 mM MnCl2, 0.1% BSA, 0.5 mM sodium orthovanadate, 0.1% β-mercaptoethanol), with 0.2 μM ATP (Sigma #A7699). […] After 25 minutes of incubation, the assay reaction was stopped with 25 μL of 100 mM EDTA. The plates were then washed, and wells were treated with 100 μL of 80 ng/mL anti-4G10-HRP antibody (Upstate #16-105) for 1 h. Plates were washed one final time, and were developed with 100 μL 3,3′,5,5′-TMB (Sigma #T8665), and quenched with 100 μL 1M HCl. Plates were read on a Victor 2 plate reader (Perkin Elmer) and IC50 analysis and calculation were performed using in-house software.

[4] = biological target: BaF3-Abl(Y253F) (Homo sapiens, UniProt P00519, Y253F, cells depend on it); assay: Cell proliferation assay, BaF3-Abl(Y253F); conditions: read-out: Cell proliferation IC50
[5] = biological target: BaF3-Abl(E255K) (Homo sapiens, UniProt P00519, E255K, cells depend on it); assay: Cell proliferation assay, BaF3-Abl(E255K); conditions: read-out: Cell proliferation IC50
[6] = test system: K562 (human cell line expressing wild type Bcr-Abl); assay: Cell proliferation assay, K562; conditions: K562, read-out: Cell proliferation IC50 (M)
[7] = biological target: T4, Bcr-Abl-wt kinase (Homo sapiens, UniProt P00519); assay: Bcr-Abl wild type biochemical assay (MBP phosphorylation, 33P-ATP); conditions: 50 μM ATP
T4 sequence (P00519 242-493 limits assumed): T2 sequence (P00519 242-493 T315I limits assumed) with I74T
Description: as §1, §2

[8] = biological target: BaF3-Abl(T315I) (Homo sapiens, UniProt P00519, T315I, cells depend on it); assay: Cell proliferation assay, BaF3-Abl(T315I); conditions: read-out: Cell proliferation IC50
[9] = In vitro tumor cell proliferation assay (Cell Titre-Glo), cell lines of interest; format: cell-based; conditions: 72 hours, Cell Titer Glo; read-out: antiproliferative properties (IC50) in one or more cell lines of interest
Text: In vitro Tumor Cell Proliferation Assay

[10] = biological target: BaF3-Abl(wt) (Homo sapiens, UniProt P00519); assay: Cell proliferation assay, BaF3-Abl(wt); conditions: read-out: Cell proliferation IC50
[11] = test system: BaF3 parental cell line that does not express Bcr-Abl; assay: Cell proliferation assay, BaF3 parental cell line; conditions: Mus musculus, BaF3, read-out: cell proliferation IC50
[12] = biological target: BaF3-Abl(M351T) (Homo sapiens, UniProt P00519, M351T, cells depend on it); assay: Cell proliferation assay, BaF3-Abl(M351T); conditions: read-out: Cell proliferation IC50

T1 sequence (P35918 832-1160 limits assumed): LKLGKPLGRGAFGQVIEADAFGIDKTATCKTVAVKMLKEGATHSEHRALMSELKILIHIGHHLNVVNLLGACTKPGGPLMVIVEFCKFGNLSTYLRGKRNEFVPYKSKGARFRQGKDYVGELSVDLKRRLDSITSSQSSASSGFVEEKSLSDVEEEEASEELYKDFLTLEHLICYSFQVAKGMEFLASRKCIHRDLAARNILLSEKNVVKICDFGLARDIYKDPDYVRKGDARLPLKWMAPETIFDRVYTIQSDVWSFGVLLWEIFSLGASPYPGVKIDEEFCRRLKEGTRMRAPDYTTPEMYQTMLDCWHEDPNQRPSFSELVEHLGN

In the case of `CNC(=O)c1cc(Oc2ccc(NC(=O)Nc3cc(C(C)(C)C)nn3-c3cccc(CO)c3)c(F)c2)ccn1` [Example 1, 4-{4-[({3-tert-Butyl-1-[3-(hydroxymethyl)phenyl]-1H-pyrazol-5-yl}carbamoyl)amino]-3-fluorophenoxy}-N-methylpyridine-2-carboxamide], the IC50 [1] is reported as less than 500 nM, the IC50 [2] is reported as less than 500 nM and the IC50 [3] is reported as less than 500 nM. For the same compound, the GI50 [4] was 5.64 nM, the GI50 [5] was 50.3 nM and the IC50 [6] was 1.58e-09 M. It also gave an IC50 [7] of less than 500 nM, a GI50 [8] of 34.1 nM and an IC50 [9] of less than 5000 nM. For the same compound, the GI50 [10] was 3.84 nM, the IC50 [11] was greater than 3000 nM and the GI50 [12] was 8.11 nM.
